Results taken from PubChem BioAssay (NCI).
Where “and” joins values, the source holds several entries; their conditions need not be identical. Identical values can stand only once.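 Dose response: 5 concentrations. Exposure: 48 h. Format: 96-well plates. Endpoint: linear interpolation; highest concentration if not reached. At the GI50, growth is halved. The concentration for full growth arrest is given as TGI.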

Experiments:
Test in all cases: NCI anticancer screen, dose series, 48 h
HOP-62 NSCLC = test system: HOP-62 NSCLC
K-562 leukemia = test system: K-562 leukemia
OVCAR-5 ovarian = test system: OVCAR-5 ovarian
OVCAR-8 ovarian = test system: OVCAR-8 ovarian
PC-3 prostate = test system: PC-3 prostate
SF-295 CNS = test system: SF-295 CNS
T-47D breast = test system: T-47D breast
UACC-257 melanoma = test system: UACC-257 melanoma
HOP-92 NSCLC = test system: HOP-92 NSCLC
HS 578T breast = test system: HS 578T breast

SMILES	GI50 (HOP-62 NSCLC)	TGI (HOP-62 NSCLC)	GI50 (K-562 leukemia)	TGI (K-562 leukemia)	GI50 (OVCAR-5 ovarian)	TGI (OVCAR-5 ovarian)	GI50 (OVCAR-8 ovarian)	TGI (OVCAR-8 ovarian)	GI50 (PC-3 prostate)	TGI (PC-3 prostate)	GI50 (SF-295 CNS)	TGI (SF-295 CNS)	GI50 (T-47D breast)	TGI (UACC-257 melanoma)	TGI (HOP-92 NSCLC)	GI50 (HS 578T breast)	TGI (HS 578T breast)	TGI (T-47D breast)	GI50 (UACC-257 melanoma)	GI50 (HOP-92 NSCLC)
Cc1ccc(Nc2nccc(N(C)c3ccc4c(C)n(C)nc4c3)n2)cc1S(N)(=O)=O	8.64 µM and 1.51 µM and 11.7 µM	> 100 µM and > 10 µM and 42.5 µM	3.05 µM and 0.454 µM and 4.21 µM	> 100 µM	1.43 µM and 6.49 µM	> 100 µM	4.8 µM and 3.61 µM and 5.04 µM	> 100 µM	4.98 µM and 7.27 µM and 7.73 µM	> 100 µM	3.57 µM and 2.78 µM and 9.92 µM	> 100 µM	3.91 µM and 1.58 µM and 3.98 µM	> 10 µM and 51.5 µM	–	–	–	–	–	–
CCCCCOCC(O)CO (stereo not given)	–	> 100 µM	–	–	–	> 100 µM	–	> 100 µM	–	–	–	> 100 µM	–	> 100 µM	> 100 µM	–	–	–	–	–
N#CC12CCC1C1CCCCC12N1CCSCC1 (stereo not given)	–	> 100 µM	–	> 100 µM	–	–	–	> 100 µM	–	–	–	> 100 µM	–	> 10 µM	> 100 µM	–	–	–	–	–
CCC(=O)N1C(=O)OCC1C(C)C (stereo not given)	–	> 100 µM	–	> 100 µM	–	> 100 µM	–	> 100 µM	–	–	–	> 100 µM	–	> 100 µM	> 100 µM	–	–	–	–	–
COc1ccc(/C(=N\NC(=O)NN)C(c2ccc(OC)cc2)C2(O)C(=O)Nc3c(Cl)cc(Cl)cc32)cc1 (stereo not given)	–	> 100 µM	–	–	–	> 100 µM	–	> 100 µM	–	–	–	> 100 µM	–	> 100 µM	> 100 µM	–	–	–	–	–
CC/C=C\C[C@H](F)C/C=C1/C(=O)C=C[C@@H]1C/C=C\CCCC(=O)OC	1.45 µM	3.45 µM	1.49 µM	6.19 µM	3.35 µM	12.4 µM	2.05 µM	12.2 µM	1.74 µM	5.7 µM	2.24 µM	8.3 µM	1.42 µM	10.1 µM	–	3.51 µM	21 µM	5.57 µM	2.75 µM	–
C[C@@]1(C(=O)O)CCC[C@]2(C)C1CC[C@@]13C[C@@](O)(CC[C@]12O)[C@@]1(CO1)C3 (stereo not given in full)	> 100 µM	> 100 µM	> 100 µM	> 100 µM	> 100 µM	> 100 µM	> 100 µM	> 100 µM	> 100 µM	> 100 µM	> 100 µM	> 100 µM	> 100 µM	> 100 µM	–	> 100 µM	> 100 µM	> 100 µM	> 100 µM	–
COc1cc(Oc2c(C)c(Cl)c(OC)c(Cl)c2OC)c2c(c1Cl)COC2=O	–	–	–	8.51 µM	–	> 100 µM	–	> 100 µM	–	–	–	> 100 µM	–	> 100 µM	> 100 µM	–	> 100 µM	> 100 µM	–	–
N#CC(C(=O)C(=O)Nc1ccccc1)c1ccccc1 (stereo not given)	–	–	–	> 100 µM	–	–	–	–	–	–	–	> 100 µM	–	> 100 µM	> 100 µM	–	–	–	–	–
COc1ccc2c(c1)c(-c1nc(-c3c[nH]c4ncccc34)cs1)cn2CCCN1CCCCC1	1.61 µM	3.2 µM	1.88 µM	4.16 µM	1.73 µM	3.8 µM	2 µM	3.76 µM	1.7 µM	3.29 µM	–	–	–	3.69 µM	3.1 µM	2.05 µM	5.61 µM	–	1.96 µM	1.5 µM
O=C1/C=C/[C@@H](O)[C@@H]2C[C@@H](O)C[C@H]2/C=C/CCC[C@H](CCc2cccc3ccccc23)O1	0.0713 µM	11.8 µM	0.368 µM	14.4 µM	0.103 µM	13.9 µM	0.0491 µM	13 µM	0.065 µM	12 µM	0.0388 µM	10.1 µM	–	0.983 µM	26.4 µM	0.779 µM	> 49.2 µM	–	0.0303 µM	12.3 µM
COc1cc(/C=C(\NC(=O)c2ccccc2)c2nc3ccc4c(c3[nH]2)C(=O)c2ccccc2C4=O)cc(OC)c1OC	–	> 100 µM	–	> 100 µM	–	> 100 µM	–	> 100 µM	–	–	–	> 100 µM	–	> 100 µM	> 100 µM	–	–	–	–	–
O=C1CSC(=S)N1c1ccco1	–	> 100 µM	–	> 100 µM	–	> 100 µM	–	> 100 µM	–	> 100 µM	–	> 100 µM	–	> 100 µM	> 100 µM	–	> 100 µM	–	–	–
O=C(Nc1cccc2c1C(=O)c1c(NC(=O)c3ccccc3)ccc(Nc3cccc4c3C(=O)c3ccccc3C4=O)c1C2=O)c1ccccc1	–	> 100 µM	–	> 100 µM	–	–	–	> 100 µM	–	–	–	–	–	> 100 µM	–	–	–	–	–	–
CC(C)C12Cc3c(ccc4ccccc34)OC1(C)Oc1ccc3ccccc3c1C2 (stereo not given)	–	–	–	> 100 µM	–	> 100 µM	–	> 100 µM	–	–	–	> 100 µM	–	–	> 100 µM	–	–	–	–	–
COc1ccc(/C=C2\CN(C(=O)C(Cl)Cl)C/C(=C\c3ccc(OC)cc3)C2=O)cc1	–	–	0.343 µM	> 100 µM	–	–	0.881 µM	> 100 µM	–	–	–	–	–	–	–	2.65 µM	> 100 µM	–	–	–
O=c1c2ccc(S(=O)(=O)c3ccc4c(=O)n5c6ccccc6nc5c5cccc3c45)c3cccc(c32)c2nc3ccccc3n12	–	> 100 µM	–	–	–	> 100 µM	–	> 100 µM	–	> 100 µM	–	53.2 µM	–	> 100 µM	–	–	–	99.3 µM	–	–
COc1cc(-c2nccc3cc(OC)c(OC)cc23)ccc1O	–	> 100 µM	–	> 100 µM	–	> 100 µM	–	> 100 µM	–	–	–	> 100 µM	–	> 100 µM	> 100 µM	–	–	–	–	–

SMILES	GI50 (HOP-62 NSCLC)	TGI (HOP-62 NSCLC)	GI50 (K-562 leukemia)	TGI (K-562 leukemia)	GI50 (OVCAR-5 ovarian)	TGI (OVCAR-5 ovarian)	GI50 (OVCAR-8 ovarian)	TGI (OVCAR-8 ovarian)	GI50 (PC-3 prostate)	TGI (PC-3 prostate)	GI50 (SF-295 CNS)	TGI (SF-295 CNS)	GI50 (T-47D breast)	TGI (UACC-257 melanoma)	TGI (HOP-92 NSCLC)	GI50 (HS 578T breast)	TGI (HS 578T breast)	TGI (T-47D breast)	GI50 (UACC-257 melanoma)	GI50 (HOP-92 NSCLC)
O=C(O)C[C@@H](Cl)[C@H](NC(=O)OCc1ccccc1)C(=O)O	–	> 100 µM	–	> 100 µM	–	> 100 µM	–	> 100 µM	–	–	–	> 100 µM	–	> 100 µM	> 100 µM	–	–	–	–	–
CSCS(=O)C[C@H](CO)NC(=O)/C=C/c1c(C)[nH]c(=O)[nH]c1=O (stereo not given in full)	1.57 µM	4.92 µM and 3.67 µM	1.72 µM	8.83 µM and 5.01 µM	2.7 µM	9.91 µM and 7.24 µM	1.02 µM	3.96 µM and 4.35 µM	–	–	0.406 µM	2.64 µM and 2.37 µM	–	7.79 µM and 4.86 µM	4.05 µM and 0.778 µM	–	–	–	2.22 µM	0.815 µM
COc1cc(OC)c(C(=O)c2cccs2)cc1N	–	> 100 µM	–	> 100 µM	–	> 100 µM	–	> 100 µM	–	–	–	> 100 µM	–	> 100 µM	–	–	–	–	–	–
Cc1cccc(-n2c(N)c(-c3nc4ccccc4[nH]3)sc2=S)c1	–	78.9 µM	–	> 100 µM	–	> 100 µM	–	72 µM	–	–	–	68.1 µM	–	67.1 µM	–	–	–	–	–	–
CCC[CH2][Sn]([CH2]CCC)([O]c1cccc2cccnc12)[O]c1cccc2cccnc12	6.31 µM	19.2 µM	0.0973 µM	0.523 µM	–	–	0.263 µM	0.945 µM	–	–	0.247 µM	0.612 µM	–	–	–	–	–	–	–	–
COC(=O)c1ccccc1N(C(=O)c1ccccc1)c1ccccc1C	–	> 100 µM	–	> 100 µM	–	> 100 µM	–	> 100 µM	–	–	–	> 100 µM	–	> 100 µM	–	–	–	–	–	–
O=S(=O)([O-])c1ccc(N=Cc2ccccc2[O-])cc1.O=S(=O)([O-])c1ccc(N=Cc2ccccc2[O-])cc1.[Co+2]	–	–	> 100 µM	> 100 µM	> 100 µM	> 100 µM	> 100 µM	> 100 µM	–	–	> 100 µM	> 100 µM	–	> 100 µM	> 100 µM	–	–	–	> 100 µM	52.1 µM
CN1CN(C2OC(CO)C(O)C2O)c2nc(N)[nH]c(=O)c21 (stereo not given)	–	> 100 µM	–	> 100 µM	–	> 100 µM	–	> 100 µM	–	–	–	> 100 µM	–	> 100 µM	> 100 µM	–	–	–	–	–
C=C(CO)CC(O)c1cc(OC)ccc1OC (stereo not given)	–	> 100 µM	–	> 100 µM	–	> 100 µM	–	> 100 µM	–	–	–	> 100 µM	–	> 100 µM	> 100 µM	–	–	–	–	–
Oc1ccc(O)c(-c2cn3c(n2)SCC3)c1	–	–	7.24 µM	> 100 µM	17.5 µM	33.3 µM	19.7 µM	52.1 µM	19.1 µM	38 µM	14.8 µM	38.7 µM	17.5 µM	55.8 µM	–	18.6 µM	90.7 µM	42.2 µM	25.5 µM	–
CO[C@@H]1C=C[C@@]23c4cc5c(cc4CN(C[C@@H]2O)[C@H]3C1)OCO5	–	–	–	> 100 µM	–	> 100 µM	–	> 100 µM	–	–	–	> 100 µM	–	> 100 µM	80.6 µM	–	–	–	–	–
N#CC(/C(CCC(=O)Nc1ccc(Cl)cc1)=N/NC(=O)c1cc2ccccc2cc1O)c1ccccc1 (stereo not given)	–	85.3 µM	–	–	–	60.6 µM	–	> 100 µM	–	–	–	> 100 µM	–	> 100 µM	> 100 µM	–	–	–	–	–
CCOC(=O)C1SC(=Nc2ccc(OC)c(OC)c2)N=C1C (stereo not given)	–	> 100 µM	–	> 100 µM	–	> 100 µM	–	> 100 µM	–	–	–	> 100 µM	–	> 100 µM	> 100 µM	–	–	–	–	–
O=C/C1=C/C2=Cc3ccccc3C=C(/C=C(/C=O)C1)C2	–	> 100 µM	–	> 100 µM	–	> 100 µM	–	> 100 µM	–	–	–	> 100 µM	–	> 100 µM	87.9 µM	–	–	–	–	–
COC(OC)c1cc2c(cc1C=O)OCO2	–	> 100 µM	–	> 100 µM	–	> 100 µM	–	> 100 µM	–	–	–	–	–	> 100 µM	> 100 µM	–	–	–	–	–
O=C1C(=O)N(c2ccc(Cl)cc2)C(=O)C(=O)C1c1nc2ccccc2o1	–	> 100 µM	–	> 100 µM	–	> 100 µM	–	> 100 µM	–	–	–	> 100 µM	–	> 100 µM	> 100 µM	–	–	–	–	–
CC(C)N(O)C(=N)c1ccccc1	–	> 100 µM	–	–	–	> 100 µM	–	> 100 µM	–	–	–	> 100 µM	–	> 100 µM	> 100 µM	–	–	–	–	–
